Source: patent publication US20040247639A1, “Novel methods and compositions for the treatment or prevention of dysmenorrhoea and menstrual side effects: the use of phospholipase inhibitors” (priority 2000, published 2004)
Read-outs that look alike come from different tables or passages of the source.

How the values were obtained:
rat uterus [1] = assay: Oxytocin-challenged uterine work in uteri of ovarectomised, sex hormone-treated rats; parameters: maximum decrease in the intensity of the oxytocin response: dose or concentration left out as unconfirmed; conditions: for maximum uterine work with oxytocin: hormone-treated group challenged with 100 mU oxytocin; for inhibition at 0.1 µM: 100 nM; for change of oxytocin EC50 values: 1 nM-1 μM
From the text: (§1) To examine the potential benefit of PLA2 inhibitors in treating dysmenorrhoea in women, an in vitro model was developed which measured the force and frequency of contractions in a rat uterus. When removed from the rat and placed in an organ bath, the uterus contracts rhythmically. The force of contraction varies with the profile of sex hormones produced by the animal at the different stages of the sexual (oestrus) cycle. Levels of oestrogen and progesterone fluctuate throughout the sexual cycle. To ensure a reproducible model, rats were ovarectomised and oestrogen, progesterone, a combination of oestrogen and progesterone and an inert control substance were given to mimic different stages of the sexual cycle.
(§2) In a separate series of experiments, rats were ovarectomised then treated with sex hormones to ensure animals are at the same stage of the oestrus cycle. Uteri were removed from the rats 4 days after hormone treatment, allowed to equilibrate in the organ baths for 30 minutes, then the intensity of uterine contractions and frequency of the spontaneous contractions was measured. In the oestrogen-primed uteri, spontaneous uterine work was […], in progesterone-primed rats, 10±0.9 mNs^−1, in oestrogen plus progesterone-primed uteri, 9±1.5 mNs^−1 and in control uteri 7.9±0.6 mNs^−1.
Challenging with oxytocin caused an increase in uterine work over baseline spontaneous activity.
(§3) sPLA2 inhibitor 5 and ketoprofen were tested in the model to determine their ability to moderate both spontaneous contractions and contractile activity stimulated by oxytocin.

rat uterus [2] = assay: Spontaneous uterine work in uteri of ovarectomised, sex hormone-treated rats; conditions: for spontaneous uterine work: uteri removed 4 days after hormone treatment of ovarectomised rats, n=4-5
From the text: as §1, §2, §3

[3] = biological target: T1, human non-pancreatic secretory PLA2 (type IIa) (Homo sapiens, UniProt P14555); assay: Mixed micelle colorimetric assay for inhibition of human non-pancreatic sPLA2 (type IIa); format: biochemical; conditions: thio-PC/Triton X-100 mixed micelles, 37° C., Dixon plot (FIG. 3); read-out: IC50 against human non-pancreatic sPLA2 (type IIa)
T1 sequence (P14555 21-144): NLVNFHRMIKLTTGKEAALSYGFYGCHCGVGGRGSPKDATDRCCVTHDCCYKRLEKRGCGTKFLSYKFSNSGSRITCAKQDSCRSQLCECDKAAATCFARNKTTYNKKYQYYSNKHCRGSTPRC
Method: Reagents were obtained commercially in the sPhospholipase A2 Assay Kit, Cayman Chemical Company MI USA. Buffer (25 mM Tris HCl at pH 7.5, 1 mg/mL BSA, 0.3 mM Triton X-100, 100 mM KCl, 10 mM CaCl2), substrate (diheptanoyl thio-phosphatidyl choline), DTNB (5,5′-dithiobis(2-nitrobenzoic acid)) and a 96 well plate were all provided. Recombinant hIIa-PLA2 was provided by the Garvan Institute for Medical Research. […] Standard inhibitor solutions were prepared from anhydrous DMSO. All samples were run in triplicate including the blank and control samples.
[…] Thio-PC is processed by s-PLA2 and the free thiol produced is detected with DTNB (Ellman's Reagent). 5-Thio-2-nitrobenzoic acid is detected spectrophotometrically at […]. IC50's were determined by assaying inhibitors at a range of concentrations.

rat uterus [4] = assay: Oxytocin-induced contractions of rat uterus in organ bath (naturally-cycling rats)
From the text: as §1, with “To ensure a reproducible model, rats were ovarectomised and oestrogen, progesterone, a combination of oestrogen and progesterone and an inert control substance were given to mimic different stages of the sexual cycle.” left out
(§4) In this model the uterine contractions are stimulated by the synthesis and release of eicosanoids and other contractile mediators by cells in the uterus, which then act on the muscle cells in the uterine wall to cause contraction. Compounds 5 and 9 were tested for their ability to inhibit spontaneous and oxytocin-induced contractions of a female rat uterus (described ahead). Addition of oxytocin, a hormone synthesised in the pituitary gland, gives uterine contractions of greater force and frequency by increasing the release of eicosanoids (Wassdal, I et al, 1998, Acta Physiol Scand, 164: 47-52, Burns, P D et al, 1998, Domest Anim Endocrinol, 15: 477-487, Asselin, E et al, 1997, Endocrinology, 138: 4798-4805). There is a relationship between the stage of the sexual cycle and the sensitivity of the uterus to oxytocin (Engstrom, T et al., 1999, J. Endocrinol., 161: 403-411). It has been shown that the contractions can be reduced if the synthesis of the mediators is blocked.
(§5) Uteri were removed from rats, divided into 4 segments and placed in organ baths to measure force and frequency of contraction. Spontaneous contractions were measured, then each segment of uterus was challenged with oxytocin (1 μI.U. to 100 mI.U.). The force and frequency of contraction was measured after oxytocin addition and a concentration response curve generated. The drugs—either an sPLA2 inhibitor or a NSAID—was then added to the bath and allowed to equilibrate for 30 minutes. The drugs were tested at concentrations ranging from 1 nM to 10 μM with one piece of tissue per concentration. The tissue was then challenged with increasing concentrations of oxytocin to generate a second concentration-response curve. The EC50 concentrations in control and drug-treated tissue were determined from the curves and compared.

[5] = tested on: monocyte leukotriene release; conditions: Cha, 1996; cited from earlier work
rat uterus [6] = assay: Rat uterine contractions, spontaneous and oxytocin-induced together; conditions: for EC50: Rattus norvegicus; for drug concentrations suppressing spontaneous and oxytocin-induced uterine contractions: rat uterine model
From the text: as §1
as §4, with “Compounds 5 and 9 were tested for their ability to inhibit spontaneous and oxytocin-induced contractions of a female rat uterus (described ahead).” left out
as §5

rat uterus [7] = assay: Spontaneous contractions of rat uterus in organ bath (naturally-cycling rats)
From the text: as §1, with “To ensure a reproducible model, rats were ovarectomised and oestrogen, progesterone, a combination of oestrogen and progesterone and an inert control substance were given to mimic different stages of the sexual cycle.” left out
as §4, §5

[8] = biological target: T2, type V human non-pancreatic sPLA2 (Homo sapiens, UniProt P39877); conditions: Chen, Y. et al, 1998; cited from earlier work
T2 sequence (P39877 21-138): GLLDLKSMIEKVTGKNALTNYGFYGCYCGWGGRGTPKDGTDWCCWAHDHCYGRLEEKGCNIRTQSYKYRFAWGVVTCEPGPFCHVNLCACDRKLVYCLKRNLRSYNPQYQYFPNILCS

[9] = Table 1, rat uterus model, read-out: ED50 Oxytocin-induced contractions
[10] = range over spontaneous and oxytocin-induced contractions, read-out: EC50, inhibition of uterine contractions
[11] = Rattus norvegicus, Oestrogen (O) group, mean ± SEM, read-out: maximum inhibition of uterine work, oxytocin challenge
[12] = Rattus norvegicus, Vehicle group, mean ± SEM, read-out: maximum inhibition of uterine work, oxytocin challenge
[13] = Table 1, rat uterus model, read-out: ED50 Spontaneous contractions
[14] = Table 1, rat uterus model, NSAIDs

oestrogen
maximum uterine work with oxytocin (rat uterus [1]): 15.7 mNs^−1
spontaneous uterine work (rat uterus [2]): 7.2±1.4 mNs^−1

CC(=O)[C@H]1CC[C@H]2[C@@H]3CCC4=CC(=O)CC[C@]4(C)[C@H]3CC[C@]12C [progesterone]
maximum uterine work with oxytocin (rat uterus [1]): 0.9 mNs^−1
spontaneous uterine work (rat uterus [2]): 10±0.9 mNs^−1

O=C(O)CC[C@@H](CSc1ccc(Cc2ccccc2)cc1)NC(=O)CCCCCCc1ccccc1 [Compound 5, (S)-5-(4-Benzyl-phenylsulfanyl)-4-(7-phenyl-heptanoylamino)-pentanoic acid]
IC50 [3]: 42 nM
EC50 (rat uterus [4]; Rattus norvegicus, FIG. 5, n=3, read-out: ED50, uterine contractions induced by oxytocin): 20 nM
EC50 (rat uterus [4]; [9]): 20 nM
IC50 [5]: 350 nM
potency in inhibiting uterine contractions compared to NSAIDs (rat uterus [6]): 1,000 fold
EC50 (rat uterus [6]; [10]): 1 to 20 nM
inhibition at 0.001 µM (rat uterus [1]; Rattus norvegicus, O + P group, 1 nM, mean ± SEM, read-out: maximum inhibition of uterine work, oxytocin challenge): 62%
inhibition at 0.1 µM (rat uterus [1]; [11]): 34%
inhibition at 0.01 µM (rat uterus [1]; Rattus norvegicus, Progesterone (P) group, 10 nM, mean ± SEM, read-out: maximum inhibition of uterine work, oxytocin challenge): 65%
inhibition at 0.1 µM (rat uterus [1]; [12]): 40%
change of oxytocin EC50 values (rat uterus [1]; oestrogen and progesterone treated uteri, n=5): did not inhibit
maximum decrease in the intensity of the oxytocin response (rat uterus [1]; oestrogen treated uteri): 34%±5%
change of oxytocin EC50 values (rat uterus [1]; oestrogen treated uteri, n=4): did not alter
EC50 (rat uterus [7]; Rattus norvegicus, FIG. 4, n=3, read-out: EC50, spontaneous activity of rat uteri in the organ bath): 30 nM
EC50 (rat uterus [7]; [13]): 30 nM
effect on spontaneous activity (rat uterus [2]; oestrogen and progesterone treated uteri, 1 nM-1 μM, n=5): did not inhibit
effect on spontaneous activity (rat uterus [2]; oestrogen treated uteri, 10 nM, n=4, P<0.05): inhibited
effect on spontaneous activity (rat uterus [2]; oil vehicle (control) rats, 1 nM, n=4, P<0.05): inhibited spontaneous activity
effect on spontaneous activity (rat uterus [2]; progesterone treated uteri, 1 nM-1 μM, n=5): did not significantly inhibit
melting point: 89 to 91.5 °C

Cc1c(CC(N)=O)c2cc(OCCCP(=O)(O)O)ccc2n1Cc1ccccc1 [Compound 9, [3-(1-Benzyl-3-carbamoylmethyl-2-methyl-1H-indol-5-yloxy)-propyl]-phosphonic acid]
IC50 [8]: 36 nM
EC50 (rat uterus [4]; [9]): 200 nM
EC50 (rat uterus [6]; FIG. 6, n=2, read-out: EC50, spontaneous contraction and oxytocin induced contractions in rat uterus): ~100 nM
EC50 (rat uterus [6]; [10]): 80 to 200 nM
EC50 (rat uterus [7]; [13]): 80 nM

CN1C(C(=O)Nc2ccccn2)=C(O)c2ccccc2S1(=O)=O [Piroxicam, piroxicam, reference compound]
ED50 Oxytocin-induced contractions (rat uterus [4]; [14]): No Effect
drug concentrations suppressing spontaneous and oxytocin-induced uterine contractions (rat uterus [6]): micromolar to millimolar
ED50 Spontaneous contractions (rat uterus [7]; [14]): No effect

CC(C(=O)O)c1cccc(C(=O)c2ccccc2)c1 (stereo not drawn) [Ketoprofen, ketoprofen, reference compound]
maximum inhibition of uterine work, oxytocin challenge (rat uterus [1]; O + P group, up to 10 μM): no inhibitory effect
inhibition at 0.1 µM (rat uterus [1]; [11]): 29%
inhibition at 0.1 µM (rat uterus [1]; Rattus norvegicus, Progesterone (P) group, mean ± SEM, read-out: maximum inhibition of uterine work, oxytocin challenge): 84%
inhibition at 0.1 µM (rat uterus [1]; [12]): 79%

COc1ccc2cc([C@H](C)C(=O)O)ccc2c1 [naproxen, reference compound]
drug concentrations suppressing spontaneous and oxytocin-induced uterine contractions (rat uterus [6]): micromolar to millimolar

Cc1c(Nc2ncccc2C(=O)O)cccc1C(F)(F)F [Flunixin, flunixin meglumine, reference compound]
effect on oxytocin-induced contractions (rat uterus [4]; FIG. 7, n=3): no effect
EC50 (rat uterus [4]; Table 1, rat uterus model, NSAIDs, read-out: ED50 Oxytocin-induced contractions): 1000 nM
drug concentrations suppressing spontaneous and oxytocin-induced uterine contractions (rat uterus [6]): micromolar to millimolar
effect on spontaneous rat uterine contractions (rat uterus [7]; FIG. 7, 1 μM and 5 μM, n=3): reduced spontaneous contractions
EC50 (rat uterus [7]; Table 1, rat uterus model, NSAIDs, read-out: ED50 Spontaneous contractions): 1000 nM
